From patent publication US20100286247A1, “Methods of Protection from Oxidative Stress” (Trustees of Boston University, priority 2005, published 2010)

Key:
Assay type in all cases: cell-based, human
GPX mRNA = test: Northern blot analysis of antioxidant enzyme mRNA: GPX; conditions: 100 μM pTT, 8-72 hours
Experimental: (§1) Cell culture followed previously published methods.^92 Primary human newborn dermal fibroblasts were cultured from neonatal circumcised foreskin specimens. The skin samples were treated overnight in a 0.25% trypsin solution at 4° C. to separate the epidermis from the dermis. The separated dermis was then cut into pieces and plated onto etched plastic tissue culture dishes. Primary culture medium consisted of DMEM supplemented with 10% bovine CS, 50 U/ml penicillin and 50 μg/ml streptomycin sulfate. […] Secondary culture medium consisted of DMEM supplemented with 10% CS.
(§2) Purified 5′-phosphorylated thymidine dinucleotides (pTT) (Midland Certified Reagents, Inc., Texas) purified by gel filtration and analyzed by mass spectroscopy, were obtained in lyophilized form. […] The stock solution was syringe filter-sterilized through a 0.2 μm pore filter and spectrophotometrically analyzed (absorbance at 260 and 280 nm) to determine the concentration, and frozen in aliquots at −20° C. […]
(§3) Cells were harvested in Trizol (Gibco BRL, Gaithersburg, Md.) and stored at −70° C. […] RNA solutions were measured by spectrophotometer readings at 260 nm and 280 nm to determine concentration and purity. […]
(§4) Northern and western films as well as stained membranes and pictures of ethidium bromide-stained gels were digitally scanned and analyzed by densitometry. […]

[1] = tested on: extracellular H2O2 from newborn fibroblasts; test: Extracellular hydrogen peroxide generation assay (horseradish peroxidase); conditions: 100 μM, two days treatment
Experimental: This assay was described by Ruch et al. for measurement of H2O2 production by macrophages and neutrophils^93 and modified for cultured cytokine-stimulated human lung fibroblasts by Thannickal et al.^94 Briefly, it utilizes horseradish peroxidase (HRP) to catalyze H2O2-dependent dimerization of tyrosine in homovanillic acid (HVA), where the H2O2 is the extracellular fraction of H2O2 produced by stimulated cells. Fibroblasts were seeded at 0.5×10^4 cells/cm^2 and treated the following day with diluent, 100 μM pTT, 100 μM pAA, 40 μM TO or 40 μM TOC1 for two days. These doses were determined in previous studies to be the optimal effective doses to achieve p53 induction and cell cycle arrest in fibroblasts within the parameters used in these investigations (cell seeding density and time of treatment).^13,142 An assay medium consisting of sterile Hanks' Balanced Salt Solution (HBSS), HRP (5 U/ml) and HVA ([…]) was added to cells after removal of the T-oligo-supplemented medium. […] Each sample was fluorometrically analyzed by excitation of the dimerized tyrosine product at 323 nm with emission measured at 423 nm (Perkin-Elmer LS-5B Luminescence Spectrometer). The same cells were then harvested and counted by Coulter Counter. […] Using the cell count results, H2O2 production was expressed as a function of time and cell number (pmol/min/million cells). […]

SOD1 mRNA = test: Northern blot analysis of antioxidant enzyme mRNA: SOD1; conditions: 100 μM pTT, 8-72 hours, three donors
Experimental: as §1, §2, §3, §4

5′-phosphorylated thymidine dinucleotides [pTT]
GPX mRNA level compared to diluent (GPX mRNA): remain unchanged
extracellular H2O2 production [1]: does not yield extracellular H2O2
SOD1 mRNA level compared to diluent (SOD1 mRNA): no difference between pTT- and diluent-treated cells
